Data from patent US20120083522A1, “MODULATION OF INFLAMMATORY RESPONSES BY FACTOR XI” (Isis Pharmaceuitcals, inc., priority 2009, published 2012).
In the oligonucleotide strings, read from the 5' end, every base follows the letter of its sugar. An asterisk marks phosphorothioate; unmarked linkages are phosphodiester. Other units and linkages are bracketed, terminal groups are in braces. A string of capitals states the bases alone. e = 2'-O-(2-methoxyethyl) (MOE); [5mC] = 5-methylcytosine; d = 2'-deoxy (DNA)

Columns and labels:
[1] = tested on: human Factor XI mRNA; assay: Antisense inhibition of human Factor XI in HepG2 cells, 75 nM, lipofectin (Example 1); format: cell-based; conditions: HepG2, 75 nM, approximately 24 hours, gapmers targeted to SEQ ID NO: 1, relative to untreated control cells
Description: Antisense oligonucleotides targeted to a Factor XI nucleic acid were tested for their effects on Factor XI mRNA in vitro. Cultured HepG2 cells at a density of 10,000 cells per well were transfected using lipofectin reagent with 75 nM antisense oligonucleotide. After a treatment period of approximately 24 hours, RNA was isolated from the cells and Factor XI mRNA levels were measured by quantitative real-time PCR. Factor XI mRNA levels were adjusted according to total RNA content, as measured by RIBOGREEN®. Results are presented as percent inhibition of Factor XI, relative to untreated control cells.
The chimeric antisense oligonucleotides in Tables 1 and 2 were designed as 5-10-5 MOE gapmers. The gapmers are 20 nucleotides in length, wherein the central gap segment is comprised of 10 2′-deoxynucleotides and is flanked on both sides (in the 5′ and 3′ directions) by wings comprising 5 nucleotides each. Each nucleotide in the 5′ wing segment and each nucleotide in the 3′ wing segment has a 2′-MOE modification. The internucleoside linkages throughout each gapmer are phosphorothioate (P═S) linkages. All cytidine residues throughout each gapmer are 5-methylcytidines. “Target start site” indicates the 5′-most nucleotide to which the gapmer is targeted. “Target stop site” indicates the 3′-most nucleotide to which the gapmer is targeted. […]

[2] = Cynomolgus monkeys: body and organ weights (Example 30); format: in vivo; conditions: day 55
Description: (§1) Groups, each consisting of two male and two female monkeys, were injected subcutaneously with 25 mg/kg of ISIS 416850, ISIS 449709, ISIS 445522, ISIS 449710, ISIS 449707, ISIS 449711, ISIS 449708, 416858 and ISIS 445531. Antisense oligonucleotide was administered to the monkeys at 25 mg/kg three times per week for week 1 and 25 mg/kg twice per week for weeks 2 to 8. A control group, consisting of two male and two female monkeys was injected subcutaneously with PBS according to the same dosing regimen. Body weights were taken 14 days and 7 days before the start of treatment and were then measured weekly throughout the treatment period. Blood samples were collected 14 days and 5 days before the start of treatment and subsequently several times during the dosing regimen for measurement of various hematologic factors. On day 55, the monkeys were euthanized by exsanguination while under deep anesthesia, and organs harvested for further analysis.
Organ weights were taken after the animals were euthanized on day 55, and livers, kidneys and spleens were harvested.

[3] = tested on: IL-1β, IL-6, IFN-γ, TNF-α, IL-8, MIP-1α, MCP-1, MIP-10, RANTES; assay: Cynomolgus monkeys: cytokine and chemokine assays (Example 30); format: in vivo
Description: as §1
Blood samples obtained from all monkey groups were sent to Pierce Biotechnology (Woburn, Mass.) for measurements of chemokine and cytokine levels. Levels of IL-1β, IL-6, IFN-γ, and TNF-α were measured using the respective primate antibodies and levels of IL-8, MIP-1α, MCP-1, MIP-10 and RANTES were measured using the respective cross-reacting human antibodies. Measurements were taken 14 days before the start of treatment and on day 55, when the monkeys were euthanized.

[4] = tested on: murine Factor XI mRNA; assay: Colitis Study B: Factor XI mRNA in the liver; format: in vivo, Swiss Webb mice; conditions: DSS-induced colitis, day 7, 20 mg/kg s.c. twice a week for 3 weeks, percent change compared to the PBS control
Description: (§2) In a first group of 8 Swiss Webb mice, 20 mg/kg of ISIS 404071 was injected subcutaneously twice a week for 3 weeks. In a second group of 8 Swiss Webb mice, 20 mg/kg of ISIS 404057 was subcutaneously injected twice a week for 3 weeks. In a third control group of 8 Swiss Webb mice, 20 mg/kg of ISISI 421208 was injected subcutaneously twice a week for 3 weeks. Two control groups of 8 mice each were injected with PBS twice a week for 3 weeks. After the oligonucleotide treatment, 4% DSS in water was administered ad libitum for 6 days to all the experimental groups and one PBS control group.
(§3) Mice in all groups were weighed at day 0 and daily after administration of DSS. Mice were sacrificed at the end of the study on day 7 after DSS was administered, their livers and colons were harvested for RNA analysis, and their body weights and colon lengths were measured.
RT-PCR analysis of Factor XI mRNA was performed. As presented in Table 27 and FIG. 10, antisense oligonucleotides targeting Factor XI achieved statistically significant dose-dependent reduction of murine Factor XI over the PBS control in the liver. All the measurements are normalized to cyclophilin.
All the results in Table 27 are expressed as percent change compared to the PBS control.

[5] = tested on: collagen-induced arthritis model; assay: Arthritis Study B: collagen-induced arthritis, clinical effects (Example 11); format: in vivo, DBA/1J mice
Description: The effect of inhibition of Factor XI and its role in fibrin accumulation in the joints leading to joint inflammation and rheumatoid arthritis was evaluated in a murine collagen-induced arthritis (CIA) model. […] Arthritis induced in mice administered collagen can be visually assessed and clinically scored as described by Marty et al. (J Clin Invest, 107:631-640, 2001) where 1 point is given for each swollen digit except the thumb (maximum, 4), 1 point is given for the tarsal or carpal joint, and 1 point is given for the metatarsal or metacarpal joint with a maximum score of […]. Each paw was graded individually, the cumulative clinical arthritic score per mouse reaching a maximum of 22 points
(§4) In a group of 20 DBA/1J mice, 20 mg/kg of ISIS 404071 were injected subcutaneously twice a week for ten weeks. In a second group of 20 DBA/1J mice, 20 mg/kg of ISIS 404057 were injected subcutaneously twice a week for ten weeks. In a third control group of 20 DBA/1J mice, 20 mg/kg of ISIS 421208 were injected subcutaneously twice a week for ten weeks. Two control groups of 20 mice each were injected with PBS twice a week for ten weeks.
Two and a half weeks after the first oligonucleotide dose, type II bovine collagen in complete Freund's adjuvant was injected subcutaneously at the base of the tail in all the experimental groups and one PBS control group. A booster injection containing 100 μg collagen type II in incomplete Freund's adjuvant was injected subcutaneously at the base of the tail at a different injection site on day 21 after the first collagen injection in these groups.
(§5) Mice in all groups were examined daily after day 30 after the first collagen injection for the visual appearance of arthritis in peripheral joints. The results in Table 22 are expressed as percent change compared to the PBS control except for the liver and spleen weight.

[6] = tested on: murine Factor XI mRNA; assay: In vivo antisense inhibition of murine Factor XI: liver RNA analysis (Example 10); conditions: BALB/c mice, relative to PBS control
Description: Several antisense oligonucleotides targeted to murine Factor XI mRNA (GENBANK Accession No. NM_028066.1, incorporated herein as SEQ ID NO: 6) showing statistically significant dose-dependent inhibition from the in vitro study were evaluated in vivo. BALB/c mice were treated with ISIS 404057 ([…], target start site 487, incorporated herein as SEQ ID NO: 10) and ISIS 404071 ([…], target start site 869, incorporated herein as SEQ ID NO: 11).
BALB/c mice were injected with 5 mg/kg, 10 mg/kg, 25 mg/kg, or 50 mg/kg of ISIS 404057 or ISIS 404071 twice a week for 3 weeks. A control group of mice was injected with phosphate buffered saline (PBS) twice a week for 3 weeks. Mice were sacrificed 5 days after receiving the last dose. Whole liver was harvested for RNA analysis and plasma was collected for protein analysis.
RNA was extracted from liver tissue for real-time PCR analysis of Factor XI. […] Results are presented as percent inhibition of Factor XI, relative to control.

[7] = tested on: DSS-induced colitis model; assay: Colitis Study B: body weight and colon length; format: in vivo, Swiss Webb mice; conditions: for Body weight / Colon length: DSS-induced colitis, day 7, 20 mg/kg s.c. twice a week for 3 weeks, percent change compared to the PBS control
Description: as §2, §3

[8] = tested on: Factor XI mRNA; assay: Arthritis Study B: liver Factor XI mRNA; format: in vivo, DBA/1J mice; conditions: FIG. 4B
Description: as §4, §5
The difference between the effective of the two Factor XI antisense oligonucleotides may be related to the relative effectiveness of each oligonucleotide in inhibiting Factor XI mRNA as shown in FIG. 4B.

[9] = Arthritis Study B: liver and spleen weight, ALT, AST; format: in vivo; conditions: collagen-treated DBA/1J mice, 20 mg/kg s.c. twice a week for ten weeks
Description: as §4, §5

[10] = tested on: OVA/alum-induced asthma model; assay: OVA-induced asthma model: BAL eosinophil recruitment (Example 13); format: in vivo, BALB/c mice; conditions: percentage of total cells in BAL, 50 mg/kg s.c. twice a week for 4 weeks
Description: The effect of antisense oligonucleotide inhibition of Factor XI and its role in ameliorating asthma was evaluated in an OVA/alum-induced asthma model. Administration of ovalbumin to animals is a well known method to induce […] and has been previously described by Henderson et al. (J. Exp. Med., 1996, 184: 1483-1494).
(§6) The mice were divided into four treatment groups of 5 mice each. One group received subcutaneous injections of ISIS 404071 at a dose of 50 mg/kg twice a week for 4 weeks. One group of mice received subcutaneous injections of control oligonucleotide, ISIS 421208, which is a mismatch oligonucleotide sequence of ISIS 404071, at a dose of 50 mg/kg twice a week for 4 weeks. Two groups of mice received subcutaneous injections of PBS twice a week for 4 weeks. One PBS group remained untreated and served as the control group. The second PBS group and both the oligonucleotide treated groups were injected with OVA/alum on days 0 and 14 and nebulized with OVA in PBS on days 24, 25, and 26. The first OVA application served to sensitize the mice against OVA while the second was a challenge application to provoke an asthmatic reaction. Two days following the final dose, the mice were euthanized, bronchial lavage (BAL) was collected and analyses done.
Bronchial asthma, even in its mild form, is characterized by local infiltration and activation of inflammatory and immunoeffector cells, including T lymphocytes, macrophages, eosinophils, and mast cells (Smith D. L. et al., Am. Rev. Respir. Dis. 1993. 148: 523-532). The effect of treatment with ISIS 404071 on bronchoalveolar lavage (BAL) eosinophil recruitment was assessed. BAL cells were stained with hemotoxylin and eosin (H&E). The results are presented in Table 49 as a percentage of total cells in BAL.

[11] = tested on: OVA/alum-induced asthma model; assay: OVA-induced asthma model: mucus production (Example 13); format: in vivo, BALB/c mice; conditions: BALB/c mice, 50 mg/kg s.c. twice a week for 4 weeks, PAS stain of lung sections
Description: as §6
Lung sections were stained with periodic acid […] (PAS) base stain that stains mucus, which is produced during asthma attacks (Rogers, D. F. Curr. Opin Pharmacol. 2004. 4: 241-250). The number of airways containing mucus as a percentage of the total airways in the lungs was evaluated.

[12] = day −14 (before start of treatment)
[13] = DBA/1J mice, 20 mg/kg s.c. twice a week for ten weeks, end of study

Question: For “412213 (antisense eA*eA*eA*e[5mC]*eA*dA*dG*d[5mC]*dA*dA*d[5mC]*d[5mC]*dG*dG*dG*eA*eT*eG*eA*eT) [compound 412213]”, which “% inhibition” value [1] is on record?
Answer: Its value is 71%.

Question: Which “spleen weight (in words)” value [2] does the source give for “ISIS 449711: microwalk gapmer of Table 53 (antisense eA*e[5mC]*dA*dG*dT*dT*dT*d[5mC]*dT*dG*dG*d[5mC]*eA*eG)” here?
Answer: Its value is “caused increase in spleen weight”.

Question: What about the IL-1β level ([3]; 25 mg/kg s.c., day 55) of the same substance?
Answer: Its IL-1β level is 146 pg/mL.

Question: And the MIP-1β level ([3]; 25 mg/kg s.c., day 55)?
Answer: The MIP-1β level was 91 pg/mL.

Question: And the IL-1β level [3, 12]?
Answer: Its IL-1β level is 79 pg/mL.

Question: And the MIP-1β level [3, 12]?
Answer: The MIP-1β level was 24 pg/mL.

Question: Which results are given for “TCCTGGCATTCTCGAGCATT (eT*e[5mC]*e[5mC]*eT*eG*dG*d[5mC]*dA*dT*dT*d[5mC]*dT*d[5mC]*dG*dA*eG*e[5mC]*eA*eT*eT) [ISIS 404057, 5-10-5 MOE gapmer targeting murine Factor XI, target start site 487]”?
Answer: Liver Factor XI mRNA [4]: −50%; amount of arthritis assessed (in words) ([5]; Arthritis Study B, 20 mg/kg twice a week for ten weeks, compared to untreated mice): did not affect the amount of arthritis; % inhibition ([6]; 5 mg/kg twice a week for 3 weeks): 40%; % inhibition ([6]; 10 mg/kg twice a week for 3 weeks): 64%; % inhibition ([6]; 25 mg/kg twice a week for 3 weeks): 85%; % inhibition ([6]; 50 mg/kg twice a week for 3 weeks): 95%; body weight (in words) ([7]; Colitis Study B, FIG. 9): did not have any significant change in body weight; Body weight [7]: −16%; Colon length [7]: −11%; Factor XI inhibition in liver (in words) [8]: lack of Factor XI inhibition

Question: Which results are given for “TCGGAAGC GACTCTTATATG (eT*e[5mC]*eG*eG*eA*dA*dG*d[5mC]*dG*dA*d[5mC]*dT*d[5mC]*dT*dT*eA*eT*eA*eT*eG) [ISIS 421208, control oligonucleotide for ISIS 404071 with 8 mismatches, 5-10-5 MOE gapmer, reference compound]”?
Answer: Liver Factor XI mRNA [4]: +25%; Liver ALT [9]: 70.06; Liver AST [9]: 165.12; Liver Weight as a % of Body Weight [9]: 6.14%; Spleen Weight as a % of Body Weight [9]: 0.718 % of Body Weight; Eosinophils [10]: 51%; % of CIA [5, 13]: 81%; % of paws affected [5, 13]: 45%; Average no. of paws affected [5, 13]: 1.7; Clinical severity of CIA [5, 13]: 7.75; Mucus production, % airways containing mucus [11]: 49 % airways; Body weight [7]: −10%; Colon length [7]: −33%
